From patent US9216978B2, “Ring-fused pyrimidines and triazines and use thereof for the treatment and/or prophylaxis of cardiovascular diseases” (BAYER INTELLECTUAL PROPERTY GMBH, priority 2010, dated 2015)

Key:
aorta = assay: Vessel-relaxing action in vitro (phenylephrine-contracted aorta rings); conditions: Oryctolagus cuniculus; rabbit aorta rings, phenylephrine contraction; concentration reducing control contraction by 50%
Description: B-1. Vessel-Relaxing Action In Vitro
Rabbits are stunned with a blow on the back of the neck and exsanguinated. The aorta is removed, freed from adhering tissue, separated into rings with a width of 1.5 mm, and placed individually, with preloading, in 5-ml organ baths with carbogen-gassed Krebs-Henseleit solution at 37° C. with the following composition (mM in each case): sodium chloride: 119; potassium chloride: 4.8; calcium chloride dihydrate: 1; magnesium sulphate heptahydrate: 1.4; potassium dihydrogen phosphate: 1.2; sodium hydrogen carbonate: 25; glucose: 10. The contraction force is recorded with Statham UC2 cells, amplified and digitized via an A/D converter (DAS-1802 HC, Keithley Instruments Munich) and recorded in parallel on a continuous-line recorder. To produce contraction, phenylephrine is added to the bath cumulatively in increasing concentration. After several control cycles, the test substance is added in increasing dosage in each subsequent pass and the level of contraction is compared with the level of contraction reached in the immediately preceding pass. This is used for calculating the concentration that is required to reduce the level of the control value by 50% (IC50 value). The standard application volume is 5 μl, and the proportion of DMSO in the bath solution corresponds to 0.1%.

[1] = target: T1, recombinant guanylate cyclase reporter cell line (Rattus norvegicus, UniProt P19686+P20595); assay: Action on recombinant guanylate cyclase reporter cell line; type: cell-based
T1 construct: expressed in transfected cells
T1 sequence (P20595 1-619): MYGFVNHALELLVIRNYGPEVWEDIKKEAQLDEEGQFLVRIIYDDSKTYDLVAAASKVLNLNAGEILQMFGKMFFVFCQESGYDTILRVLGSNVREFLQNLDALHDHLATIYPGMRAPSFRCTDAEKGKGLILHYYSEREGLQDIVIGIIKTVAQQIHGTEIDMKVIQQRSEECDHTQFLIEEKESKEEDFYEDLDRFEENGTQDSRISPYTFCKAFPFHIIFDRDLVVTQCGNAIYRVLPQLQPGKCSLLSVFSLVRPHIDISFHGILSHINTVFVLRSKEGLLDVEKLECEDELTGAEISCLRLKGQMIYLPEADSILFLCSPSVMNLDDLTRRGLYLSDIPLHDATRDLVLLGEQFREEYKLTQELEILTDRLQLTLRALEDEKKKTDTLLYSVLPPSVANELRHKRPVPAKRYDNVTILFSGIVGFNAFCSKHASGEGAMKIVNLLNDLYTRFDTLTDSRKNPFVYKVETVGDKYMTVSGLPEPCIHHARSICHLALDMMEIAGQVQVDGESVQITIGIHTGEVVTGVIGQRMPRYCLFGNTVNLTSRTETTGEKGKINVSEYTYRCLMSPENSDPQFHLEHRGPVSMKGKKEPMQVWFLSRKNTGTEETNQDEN
T1 sequence (P19686 1-690): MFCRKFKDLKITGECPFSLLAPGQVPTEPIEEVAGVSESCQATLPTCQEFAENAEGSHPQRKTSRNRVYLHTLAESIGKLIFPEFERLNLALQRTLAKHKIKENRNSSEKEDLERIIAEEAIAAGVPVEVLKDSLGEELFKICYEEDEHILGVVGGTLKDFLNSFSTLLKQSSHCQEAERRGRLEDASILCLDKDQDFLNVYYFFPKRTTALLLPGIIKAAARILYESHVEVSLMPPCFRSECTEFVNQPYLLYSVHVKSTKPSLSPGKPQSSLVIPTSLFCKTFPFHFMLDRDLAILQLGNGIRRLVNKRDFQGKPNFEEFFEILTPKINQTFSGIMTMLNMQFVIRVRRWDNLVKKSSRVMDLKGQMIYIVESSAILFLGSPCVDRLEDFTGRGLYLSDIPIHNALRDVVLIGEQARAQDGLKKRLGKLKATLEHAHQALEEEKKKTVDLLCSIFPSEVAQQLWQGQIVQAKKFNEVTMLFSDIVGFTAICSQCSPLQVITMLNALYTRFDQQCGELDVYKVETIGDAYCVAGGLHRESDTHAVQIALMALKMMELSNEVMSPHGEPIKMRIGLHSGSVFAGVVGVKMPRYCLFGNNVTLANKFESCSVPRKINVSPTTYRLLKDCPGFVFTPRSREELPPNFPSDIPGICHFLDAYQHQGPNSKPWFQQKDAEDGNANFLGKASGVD
Description: B-2. Action on Recombinant Guanylate Cyclase Reporter Cell Line
The cellular action of the compounds according to the invention is determined on a recombinant guanylate cyclase reporter cell line, as described in F. Wunder et al., Anal. Biochem. 339, 104-112 (2005).

Compound | IC50 (aorta) | MEC (minimal effective concentration) [1]
CC1(C)C(=O)Nc2nc(-c3nn(Cc4ccccc4F)c4ncc(F)cc34)ncc21 [Example 2, 2-[5-Fluoro-1-(2-fluorobenzyl)-1H-pyrazolo[3,4-b]pyridin-3-yl]-5,5-dimethyl-5,7-dihydro-6H-pyrrolo[2,3-d]pyrimidin-6-one] | 12 nM | 0.01 µM
O=C1Nc2nc(-c3nn(Cc4ccccc4F)c4ncccc34)ncc2C12CCOC2 (centres unmarked) [Example 3, 2′-[1-(2-Fluorobenzyl)-1H-pyrazolo[3,4-b]pyridin-3-yl]-4,5-dihydrospiro[furan-3,5′-pyrrolo[2,3-d]pyrimidin]-6′(7′H)-one] |  | 0.03 µM
O=C1Cc2cnc(-c3nn(Cc4ccccc4F)c4ncccc34)nc2N1 [Example 4, 2-[1-(2-Fluorobenzyl)-1H-pyrazolo[3,4-b]pyridin-3-yl]-5,7-dihydro-6H-pyrrolo[2,3-d]pyrimidin-6-one] |  | 0.03 µM
O=C1Nc2nc(-c3nn(Cc4ccccc4F)c4ncccc34)ncc2C12CC2 [Example 5, 2′-[1-(2-Fluorobenzyl)-1H-pyrazolo[3,4-b]pyridin-3-yl]spiro[cyclopropane-1,5′-pyrrolo[2,3-d]pyrimidin]-6′(7′H)-one] |  | 0.03 µM
O=C1Cc2nnc(-c3nn(Cc4ccccc4F)c4ncccc34)nc2N1 [Example 6, 3-[1-(2-Fluorobenzyl)-1H-pyrazolo[3,4-b]pyridin-3-yl]-5,7-dihydro-6H-pyrrolo[2,3-e][1,2,4]-triazin-6-one] |  | 0.03 µM
CC1(C)C(=O)Nc2nc(-c3nn(Cc4ccccc4F)c4ncccc34)nc(C(F)F)c21 [Example 7, 4-(Difluoromethyl)-2-[1-(2-fluorobenzyl)-1H-pyrazolo[3,4-b]pyridin-3-yl]-5,5-dimethyl-5,7-dihydro-6H-pyrrolo[2,3-d]pyrimidin-6-one] | 45 nM | 0.03 µM
O=C1Nc2nc(-c3nn(Cc4ccc(F)cc4F)c4ncccc34)ncc2C12CC2 [Example 8, 2′-[1-(2,4-Difluorobenzyl)-1H-pyrazolo[3,4-b]pyridin-3-yl]spiro[cyclopropane-1,5′-pyrrolo[2,3-d]pyrimidin]-6′(7′H)-one] | 13 nM | 0.03 µM
O=C1Nc2nc(-c3nn(Cc4cccc(F)c4F)c4ncccc34)ncc2C12CC2 [Example 10, 2′-[1-(2,3-Difluorobenzyl)-1H-pyrazolo[3,4-b]pyridin-3-yl]spiro[cyclopropane-1,5′-pyrrolo[2,3-d]pyrimidin]-6′(7′H)-one] | 6 nM | 0.03 µM
CC1(C)C(=O)Nc2nc(-c3nn(Cc4cccc(F)c4F)c4ncccc34)ncc21 [Example 11, 2-[1-(2,3-Difluorobenzyl)-1H-pyrazolo[3,4-b]pyridin-3-yl]-5,5-dimethyl-5,7-dihydro-6H-pyrrolo[2,3-d]pyrimidin-6-one] | 4 nM | 0.03 µM
CC1(C)C(=O)Nc2nc(-c3nn(Cc4ccccc4F)c4ncccc34)nc(C3CC3)c21 [Example 12, 4-Cyclopropyl-2-[1-(2-fluorobenzyl)-1H-pyrazolo[3,4-b]pyridin-3-yl]-5,5-dimethyl-5,7-dihydro-6H-pyrrolo[2,3-d]pyrimidin-6-one] |  | 0.1 µM
CC1(C)C(=O)Nc2nc(-c3nn(Cc4ccc(F)cc4F)c4ncccc34)ncc21 [Example 13, 2-[1-(2,4-Difluorobenzyl)-1H-pyrazolo[3,4-b]pyridin-3-yl]-5,5-dimethyl-5,7-dihydro-6H-pyrrolo[2,3-d]pyrimidin-6-one] |  | 0.1 µM
CC1CC(=O)Nc2nc(-c3nn(Cc4ccccc4F)c4ncccc34)ncc21 (centres unmarked) [Example 14, 2-[1-(2-Fluorobenzyl)-1H-pyrazolo[3,4-b]pyridin-3-yl]-5-methyl-5,8-dihydropyrido[2,3-d]-pyrimidin-7(6H)-one] | 65 nM | 0.1 µM
O=C1CC(C(F)(F)F)c2cnc(-c3nn(Cc4ccccc4F)c4ncccc34)nc2N1 (centres unmarked) [Example 15, 2-[1-(2-Fluorobenzyl)-1H-pyrazolo[3,4-b]pyridin-3-yl]-5-(trifluoromethyl)-5,8-dihydropyrido[2,3-d]pyrimidin-7(6H)-one] |  | 0.3 µM
O=C1Nc2nc(-c3nn(Cc4ccccc4F)c4ncccc34)ncc2C1=O [Example 16, 2-[1-(2-Fluorobenzyl)-1H-pyrazolo[3,4-b]pyridin-3-yl]-5H-pyrrolo[2,3-d]pyrimidine-5,6(7H)-dione] |  | 1.0 µM
CC1(C)C(=O)Nc2nc(-c3nn(Cc4ccc(F)cc4F)c4ncc(F)cc34)nnc21 [Example 21, 3-[1-(2,4-Difluorobenzyl)-5-fluoro-1H-pyrazolo[3,4-b]pyridin-3-yl]-7,7-dimethyl-5,7-dihydro-6H-pyrrolo[2,3-e][1,2,4]triazin-6-one] |  | 0.1 µM
O=C1Nc2nc(-c3nn(Cc4ccccc4F)c4ncccc34)ncc2C1(O)c1ccccc1 (centres unmarked) [Example 22, 2-[1-(2-Fluorobenzyl)-1H-pyrazolo[3,4-b]pyridin-3-yl]-5-hydroxy-5-phenyl-5,7-dihydro-6H-pyrrolo[2,3-d]pyrimidin-6-one] |  | 0.03 µM
O=C(O)CC1(O)C(=O)Nc2nc(-c3nn(Cc4ccccc4F)c4ncccc34)ncc21 (centres unmarked) [Example 25, {2-[1-(2-Fluorobenzyl)-1H-pyrazolo[3,4-b]pyridin-3-yl]-5-hydroxy-6-oxo-6,7-dihydro-5H-pyrrolo[2,3-d]pyrimidin-5-yl}acetic acid] |  | 1.0 µM
CC1(C)C(=O)Nc2nc(-c3nn(Cc4c(F)ccc(F)c4F)c4ncc(F)cc34)nnc21 [Example 29, 3-[5-Fluoro-1-(2,3,6-trifluorobenzyl)-1H-pyrazolo[3,4-b]pyridin-3-yl]-7,7-dimethyl-5,7-dihydro-6H-pyrrolo[2,3-e][1,2,4]triazin-6-one] |  | 0.1 µM
COC(=O)C(C)(C)c1nnc(-c2nn(Cc3ccc(F)cc3F)c3ncccc23)nc1O [Example 77A, Methyl 2-{3-[1-(2,4-difluorobenzyl)-1H-pyrazolo[3,4-b]pyridin-3-yl]-5-hydroxy-1,2,4-triazin-6-yl}-2-methylpropanoate] |  | 1.0 µM
COC(=O)C(C)(C)c1nnc(-c2nn(Cc3c(F)ccc(F)c3F)c3ncc(F)cc23)nc1O [Example 82A, Methyl 2-{3-[5-fluoro-1-(2,3,6-trifluorobenzyl)-1H-pyrazolo[3,4-b]pyridin-3-yl]-5-hydroxy-1,2,4-triazin-6-yl}-2-methylpropanoate] |  | 0.3 µM
